According to US20150306110A1, “COMPOSITIONS AND METHODS FOR TREATMENT OF INFLAMMATION AND HYPERKERATOTIC LESIONS” (Novelix Pharmaceuticals, Inc., priority 2008, published 2015):
pIC50: −log10 of the molar value. ≈ marks a conversion by molar mass, not a printed value.

Key:
[1] = Solubility in ethanol, DMSO and ethanol-Tween 80; type: physicochemical; conditions: for solubility: organic solvent or mixture
Description: After solution in ethanol or DMSO, or chemically similar solvents, NVX-207 or a related compound may be formulated with co-solvents such as Cremophor EL® and/or Tween® 80, in a similar manner described for taxanes. For example, the formulation approach for paclitaxel (TAXOL®; Bristol-Myers Squibb) was to use 50% Cremophor EL® and 50% ethanol. The pharmaceutical formulation of paclitaxel contains 30 mg paclitaxel dissolved in 5 ml of this (1:1, v/v) mixture. These and equivalent formulations allow for the application of NVX-207 in sufficiently high concentrations not only for topical, but also for intralesional and systemic (intravenous infusion) use. Solubility of NVX-207 in ethanol was determined to be at least 300 mg/ml and reached 250 mg/ml in DMSO. […] The solubility of NVX-207 in ethanol-Tween® 80 was evaluated. Two-hundred mg of NVX-207 was dissolved in 1 ml ethanol. […] Then an equal volume of Tween® 80 was added, to achieve a stock solution of 100 mg/ml of NVX-207. The stock solution was clear and yellow. Each stock solution was diluted first 1:1 (50 mg/ml NVX-207), then 1:5 (20 mg/ml NVX-207) and finally 1:10 (10 mg/ml NVX-207) with water. […] NVX-207 therefore has, apart from its higher activity, significant advantages over betulinic acid, that include higher activity, better solubility in pharmaceutically suitable solvents, and better handling.

Osteosarcoma-D17 = experiment: Cell growth/survival, canine osteosarcoma D17 cells; type: cell-based; conditions: Canis lupus familiaris
Melanoma-TLM1 = experiment: Cell growth/survival, canine melanoma TLM1 cells; type: cell-based; conditions: Canis lupus familiaris
Description: Melanoma cell lines used in this study were maintained in Dulbecco's modified Eagle medium (DMEM with 4500 mg/l glucose) supplemented with 10% FCS from Gibco BRL (Life Technologies, Berlin, Germany). The canine mastocytoma cell line C2 (DeVinney et al, Am. J. Respir. Cell Mol. Biol. 3:413-20, 1990) was used in this study, along with additional human cell lines: RD-ES and TC-71 (human Ewing's sarcoma), SAOS2 (human osteosarcoma), HT-1080 (human fibrosarcoma), Caco-2 (human colon adenocarcinoma), A549 (human lung adenocarcinoma), Hep-G2 and Hep-3B (human hepatocellular carcinoma), SK-N-DZ and SK-N-FI (human embryonal neuroblastoma), HTB9 (human bladder cancer), MDA-468 and MCF-7 (human breast cancer) and SW872 liposarcoma. All breast cancer cells were routinely cultured in DMEM/F-12 or in DMEM alone supplemented with 10% FCS at 37° C. in a humidified 5% CO2 atmosphere. RD-ES and TC-71 sarcoma cell lines were maintained in RPMI 1640 (Biochrom KG, Berlin, Germany) containing 10% FCS at 37° C. in a humidified 5% CO2 atmosphere. […]
Briefly, cells were maintained in standard medium, harvested, and plated at equal densities (750,000 cells in 5 cm tissue culture dishes). […] For the assessment of cell growth, the number of surviving cells was determined using an automated cell counter from Beckman Coulter GmbH (Krefeld, Germany). […]

With `C=C(C)[C@@H]1CC[C@]2(C(=O)OCC(N)(CO)CO)CC[C@]3(C)[C@H](CC[C@@H]4[C@@]5(C)CC[C@H](OC(C)=O)C(C)(C)[C@@H]5CC[C@]43C)[C@@H]12` [NVX-207, 3-O-acetylbetulinic acid-2-amino-3-hydroxy-2-hydroxymethylpropyl ester] the “Increase in solubility in DMSO compared to betulinic acid” value ([1]; DMSO) was “over 20 fold”, the “Increase in solubility in ethanol compared to betulinic acid” value ([1]; ethanol) was “over 300 fold” and the solubility ([1]; Solubility in DMSO) was 250 mg/mL (≈ 415 mM). It also gave a solubility ([1]; Solubility in ethanol) of at least 300 mg/mL, a pIC50 (Osteosarcoma-D17) of 5.42 and a pIC50 (Melanoma-TLM1) of 5.42.
